The subject of data set [1] is elastase. Put plainly: Elastase inhibiting activity of purified recombinant elafin (Referential Examples 1 and 2). The format is biochemical. The conditions noted are these: elafin produced by Escherichia coli, purified by reverse phase HPLC.
The test system of data set [2] is endotoxin-treated mice. Put plainly: Test 3: survival rate in mouse endotoxin shock model. The conditions noted are these: test substance i.v. four times, survivors/10 mice. It counts as in vivo, ICR male mice. The protocol:
Using a mouse endotoxin shock model, effects of the elafin derivative according to this invention on the survival rate were investigated while using natural elafin and urinastatin, which is a urinary trypsin inhibitor having anti-elastase action, as comparative substances. After endotoxin was administered at 6 mg/Kg to the caudal veins of ten 7 weeks-old ICR male mice (CHARLES RIVER JAPAN, INC.) in each group, the mice were administered with one of the test substance. Their survival rate was observed along the passage of time. The test substance was administered to the caudal veins of the mice four times in total, that is, 10 minutes before the administration of endotoxin and 3 hours, 6 hours and 12 hours after its administration.
Employed as the test substances were natural elafin, the elafin derivative according to the present invention in which the methionine at the 25th had been modified to leucine (hereinafter called "L-elafin") and urinastatin ("MIRACLID"™;product of MOCHIDA PHARMACEUTICAL CO., LTD.; hereinafter called "UTI").
Natural elafin and L-elafin were each dissolved in a buffer of 20 mM sodium acetate physiological saline, in which 1% bovine serum albumin had been added, whereas UTI was dissolved in the physiological saline.
As a control, a buffer of 20 mM sodium acetate physiological saline, in which 1% bovine serum albumin had been added, was used.

Data set [3] has as its target T1, neutrophilic elastase (Homo sapiens, UniProt P08246).
T1 construct: purchased Elastin Products Co., Inc
T1 sequence (P08246 30-267): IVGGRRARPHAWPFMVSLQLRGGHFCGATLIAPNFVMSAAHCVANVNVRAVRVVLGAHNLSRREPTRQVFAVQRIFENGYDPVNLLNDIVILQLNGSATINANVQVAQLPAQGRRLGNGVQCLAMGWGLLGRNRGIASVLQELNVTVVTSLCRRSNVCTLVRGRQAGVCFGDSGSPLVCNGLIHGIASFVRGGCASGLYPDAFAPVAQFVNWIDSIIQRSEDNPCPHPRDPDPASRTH
Put plainly: Test 1: neutrophilic elastase inhibiting activity of non-oxidized and oxidized elafins (AAPV-pNA substrate). The format is biochemical. Here is the method:
Natural elafin and the elafin derivatives were oxidized, and variations in their inhibiting activity against neutrophilic elastase were investigated. Oxidative reaction solutions of natural elafin and the elafin derivatives as elastase inhibitors were each prepared by adding 220 μM of H2 O2 and 6 nM of myeloperoxidase (product of Elastin Products Co., Ltd.) to 250 μl of a phosphate buffer (product of TAKARA SHUZO CO., LTD.) which contained 5 μg of the corresponding elafin or elafin derivative, incubating the resulting mixture at 37° C. for 20 minutes and then adding the same volume of a reaction terminating solution (catalase 0.2 mg/ml, 5 mM methionine).
Further, the measurement of elastase activity was conducted as will be described below by using 5-100 μl of the oxidative reaction solution (inhibitor concentration: 10 μg/ml) of natural elafin and the elafin derivatives prepared as described above.

[4] abbreviates: 12 hrs after administration of endotoxin (6 mg/Kg, caudal vein).
The mark [5] stands for this setting: 14 hrs after administration of endotoxin (6 mg/Kg, caudal vein).
Where [6] appears, read: 16 hrs after administration of endotoxin (6 mg/Kg, caudal vein).
The mark [7] stands for this setting: 18 hrs after administration of endotoxin (6 mg/Kg, caudal vein).
[8] abbreviates: 20 hrs after administration of endotoxin (6 mg/Kg, caudal vein).
The mark [9] stands for this setting: 22 hrs after administration of endotoxin (6 mg/Kg, caudal vein).
Where [10] appears, read: 24 hrs after administration of endotoxin (6 mg/Kg, caudal vein).
Setting [11] is: 26 hrs after administration of endotoxin (6 mg/Kg, caudal vein).
The mark [12] stands for this setting: 28 hrs after administration of endotoxin (6 mg/Kg, caudal vein).
Setting [13] is: 30 hrs after administration of endotoxin (6 mg/Kg, caudal vein).
Where [14] appears, read: 36 hrs after administration of endotoxin (6 mg/Kg, caudal vein).
Where [15] appears, read: 48 hrs after administration of endotoxin (6 mg/Kg, caudal vein).

As for “Natural elafin: 57-residue elastase inhibitor isolated from psoriatics (SEQ ID NO:2); produced recombinantly in Escherichia coli or yeast (AQEPVKGPVSTKPGSCPIILIRCAMLNPPNRCLKDTDCPGIKKCCEGSCGMACFVPQ)”, the elastase inhibiting activity entry in data set [1] was “strong inhibiting activity”. For the same substance, the Survival rate in data set [2] (setting [4]) is recorded as 10/10; in data set [2] (setting [5]), 10/10; in data set [2] (setting [6]) it was 9/10; in data set [2] (setting [7]), 8/10; in data set [2] (setting [8]), 5/10; in data set [2] (setting [9]) it was 5/10. The Survival rate in data set [2] (setting [10]) is listed as 3/10; in data set [2] (setting [11]), 2/10; in data set [2] (setting [12]), 1/10; in data set [2] (setting [13]), 0/10; in data set [2] (setting [14]) it was 0/10; in data set [2] (setting [15]) it was 0/10. Further, the stability to oxidation entry in data set [3] (general statement of the inventors' findings) is “unstable to oxidation”. In addition, in data set [3] (oxidized with 220 μM H2O2 and 6 nM myeloperoxidase, 37° C., 20 minutes, FIG. 3), the “variation in inhibiting activity against neutrophilic elastase by oxidation” value was “significantly decrease”.
For “urinastatin (MIRACLID) [UTI, product of MOCHIDA PHARMACEUTICAL CO., LTD]”, the Survival rate is 10/10 in data set [2] (setting [4]); 10/10 in data set [2] (setting [5]); 8/10 in data set [2] (setting [6]); 8/10 in data set [2] (setting [7]); 4/10 in data set [2] (setting [8]); 4/10 in data set [2] (setting [9]). The Survival rate is 2/10 in data set [2] (setting [10]); 1/10 in data set [2] (setting [11]); 0/10 in data set [2] (setting [12]); 0/10 in data set [2] (setting [13]); 0/10 in data set [2] (setting [14]); 0/10 in data set [2] (setting [15]).
Take “Reduced elafin: elafin in the completely reduced form, before formation of S--S bonds (AQEPVKGPVSTKPGSCPIILIRCAMLNPPNRCLKDTDCPGIKKCCEGSCGMACFVPQ)”: the elastase inhibiting activity entry in data set [1] is listed as “did not show any inhibiting activity”.

For the origin of these results see patent US5734014A, “Elafin derivative” (Tsumura & Co., priority 1992, dated 1998).
